These results are taken from ChEMBL document CHEMBL1201862, “PubChem BioAssay data set” (2004).

Assay [1] has as its target Intestinal-type alkaline phosphatase (Mus musculus, UniProt P24822). In words: PubChem AID 488785. Type of assay: functional.
The target of assay [2] is Sphingosine 1-phosphate receptor 4 (Homo sapiens, UniProt O95977). In words: Fluorescence dose response cell-based high throughput screening assay for antagonists of the Sphingosine 1-Phosphate Receptor 4 (S1P4). [Related pubchem assays: 1524 (Confirmation in triplicates.), 1510 (Primary screen.)]. Type of assay: functional.
In another assay the test system is BJ. In words: BJ-TERT-LT-ST fibroblast viability loss – cell-based, RAS-independent, luminescence, dose response (AID 1935).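 Further: BJ fibroblasts immortalized with TERT plus LT and ST oncogenes.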 Particulars: Homo sapiens. Type of assay: functional.
A short description of assay [3]: Luminescence Cell-Based Dose Response HTS to Identify Inhibitors of 5'UTR Stem-Loop Driven Prion Protein mRNA Translation in H4 Neuroglioblastoma Cells. [Related pubchem assays: 1827 (Project Summary), 1813 (Primary HTS)]. The assay is classed as functional.
Another assay addresses T1, Streptokinase A (Streptococcus pyogenes serotype M1, UniProt P10520).
T1 sequence (P10520 whole entry): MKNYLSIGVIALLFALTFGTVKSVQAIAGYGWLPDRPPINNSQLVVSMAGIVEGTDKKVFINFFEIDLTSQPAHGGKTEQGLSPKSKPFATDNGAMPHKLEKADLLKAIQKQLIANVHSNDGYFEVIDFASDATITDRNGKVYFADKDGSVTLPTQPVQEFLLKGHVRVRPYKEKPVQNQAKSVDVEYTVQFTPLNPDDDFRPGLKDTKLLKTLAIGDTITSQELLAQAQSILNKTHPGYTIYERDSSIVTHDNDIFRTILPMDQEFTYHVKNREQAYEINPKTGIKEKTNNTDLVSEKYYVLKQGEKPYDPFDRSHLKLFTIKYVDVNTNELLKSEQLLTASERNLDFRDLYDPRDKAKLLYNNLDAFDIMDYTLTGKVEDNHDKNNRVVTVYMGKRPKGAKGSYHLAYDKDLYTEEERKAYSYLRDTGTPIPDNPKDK
The assay can be described thus: viability-normalized secreted streptokinase activity reduction – plasminogen activation absorbance, OD405, dose response (AID 1914).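 Further: secreted streptokinase activity via plasminogen activation per viability signal from cell pellet.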 The assay is classed as functional, Streptococcus pyogenes M1 GAS.

The next assay relates to Streptococcus. The assay can be described thus: GAS UMAA2166 growth inhibition – luminescence, BacTiterGlo, counter-screen for streptokinase expression inhibitor project, dose response (AID 1915).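 Further: potency for reduction of bacterial viability or growth.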 Type of assay: functional, organism-based.
A short description of assay [4]: viability loss in HeLa cells – cytotoxicity control for MgcRacGAP inhibitor project, dose response (AID 624300). The assay is classed as functional.
For a further assay, the target named is Misshapen-like kinase 1 (Homo sapiens, UniProt Q8N4C8). Type of assay: functional.
Assay [5] addresses Glycogen synthase kinase-3 beta (Homo sapiens, UniProt P49841). The assay is classed as functional.
Assay [6] concerns the target Calcium/calmodulin-dependent protein kinase type II subunit beta (Homo sapiens, UniProt Q13554). Type of assay: functional.
Assay [7] has as its target Serine/threonine-protein kinase PLK1 (Homo sapiens, UniProt P53350). The assay is classed as functional.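 Further: PLK1 measured as one member of a kinome-wide profiling panel.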
Assay [8] deals with Platelet-derived growth factor receptor beta (Homo sapiens, UniProt P09619). Type of assay: functional.
Assay [9] addresses Testis-specific serine/threonine-protein kinase 2 (Homo sapiens, UniProt Q96PF2). Type of assay: functional.
Assay [10] has as its target Serine/threonine-protein kinase PAK 1 (Homo sapiens, UniProt Q13153). Type of assay: functional.
The target in assay [11] is Interleukin-1 receptor-associated kinase 1 (Homo sapiens, UniProt P51617). Type of assay: functional.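 Further: IRAK1 tested as one member of a kinome panel.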
The target of assay [12] is Serine/threonine-protein kinase TAO1 (Homo sapiens, UniProt Q7L7X3). The assay is classed as functional.
For assay [13], the target named is MAP kinase-activated protein kinase 5 (Homo sapiens, UniProt Q8IW41). The assay is classed as functional.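 Further: measured as one member of a kinome panel.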
Assay [14] concerns the target Fibroblast growth factor receptor 1 (Homo sapiens, UniProt P11362). Type of assay: functional.
The target of the next assay is Aurora kinase A (Homo sapiens, UniProt O14965). The assay is classed as functional.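 Further: value from the Navigating the Kinome kinase panel profiling, panel entry STK6.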
The target in assay [15] is Dual specificity mitogen-activated protein kinase kinase 1 (Homo sapiens, UniProt Q02750). The assay can be described thus: Navigating the Kinome. Panel member name: MAP2K1. Type of assay: functional.
The target in assay [16] is Homeodomain-interacting protein kinase 4 (Homo sapiens, UniProt Q8NE63). Type of assay: functional.
Assay [17] concerns the target Serine/threonine-protein kinase N2 (Homo sapiens, UniProt Q16513). The assay is classed as functional.
Assay [18] addresses Glycogen synthase kinase-3 alpha (Homo sapiens, UniProt P49840). Type of assay: functional.
A further assay addresses SRSF protein kinase 1 (Homo sapiens, UniProt Q96SB4). The assay is classed as functional.
Assay [19] has as its target cGMP-dependent protein kinase 1 (Homo sapiens, UniProt Q13976). The assay is classed as functional.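 Further: value from a kinome panel screen with PRKG1 as the panel member.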
In assay [20] the target is Platelet-derived growth factor receptor alpha (Homo sapiens, UniProt P16234). The assay can be described thus: Navigating the Kinome. Panel member name: PDGFRA. Type of assay: functional.

Activity calls are given as the source filed them.

Chain of Serine/threonine-protein kinase PLK1 (P53350 whole entry): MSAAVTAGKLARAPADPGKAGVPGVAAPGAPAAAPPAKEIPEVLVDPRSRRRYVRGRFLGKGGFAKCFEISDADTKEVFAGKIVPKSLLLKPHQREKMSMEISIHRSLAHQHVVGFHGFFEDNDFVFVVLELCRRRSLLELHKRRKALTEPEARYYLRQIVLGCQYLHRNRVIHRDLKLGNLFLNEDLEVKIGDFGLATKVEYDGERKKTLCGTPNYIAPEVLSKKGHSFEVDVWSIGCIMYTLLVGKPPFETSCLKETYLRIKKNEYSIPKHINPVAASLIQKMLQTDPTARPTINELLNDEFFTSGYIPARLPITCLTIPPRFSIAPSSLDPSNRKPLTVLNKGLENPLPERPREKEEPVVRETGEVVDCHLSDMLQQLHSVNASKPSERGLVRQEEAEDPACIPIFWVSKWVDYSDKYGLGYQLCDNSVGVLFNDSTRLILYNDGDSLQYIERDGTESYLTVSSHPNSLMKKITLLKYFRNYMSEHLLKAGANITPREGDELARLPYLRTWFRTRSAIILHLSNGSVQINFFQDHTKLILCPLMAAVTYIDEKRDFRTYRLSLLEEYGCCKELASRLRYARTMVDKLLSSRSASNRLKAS
Chain of cGMP-dependent protein kinase 1 (Q13976 whole entry): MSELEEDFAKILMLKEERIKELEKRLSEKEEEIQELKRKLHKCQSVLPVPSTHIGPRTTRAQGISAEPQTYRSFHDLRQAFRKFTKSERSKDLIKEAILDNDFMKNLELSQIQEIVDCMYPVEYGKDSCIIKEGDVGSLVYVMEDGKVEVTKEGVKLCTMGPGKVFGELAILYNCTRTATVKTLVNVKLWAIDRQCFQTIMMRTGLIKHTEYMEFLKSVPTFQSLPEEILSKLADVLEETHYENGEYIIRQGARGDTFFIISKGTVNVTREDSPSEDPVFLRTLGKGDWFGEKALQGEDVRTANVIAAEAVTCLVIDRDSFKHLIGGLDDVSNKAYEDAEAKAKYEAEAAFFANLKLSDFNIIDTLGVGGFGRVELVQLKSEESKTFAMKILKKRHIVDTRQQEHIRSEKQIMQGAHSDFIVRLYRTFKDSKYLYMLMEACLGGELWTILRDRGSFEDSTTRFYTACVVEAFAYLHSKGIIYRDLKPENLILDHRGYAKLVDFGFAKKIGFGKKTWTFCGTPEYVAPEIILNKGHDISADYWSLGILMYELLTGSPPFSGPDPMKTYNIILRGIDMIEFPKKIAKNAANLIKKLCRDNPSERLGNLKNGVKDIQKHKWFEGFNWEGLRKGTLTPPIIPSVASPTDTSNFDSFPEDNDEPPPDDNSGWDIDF
Chain of Sphingosine 1-phosphate receptor 4 (O95977 whole entry): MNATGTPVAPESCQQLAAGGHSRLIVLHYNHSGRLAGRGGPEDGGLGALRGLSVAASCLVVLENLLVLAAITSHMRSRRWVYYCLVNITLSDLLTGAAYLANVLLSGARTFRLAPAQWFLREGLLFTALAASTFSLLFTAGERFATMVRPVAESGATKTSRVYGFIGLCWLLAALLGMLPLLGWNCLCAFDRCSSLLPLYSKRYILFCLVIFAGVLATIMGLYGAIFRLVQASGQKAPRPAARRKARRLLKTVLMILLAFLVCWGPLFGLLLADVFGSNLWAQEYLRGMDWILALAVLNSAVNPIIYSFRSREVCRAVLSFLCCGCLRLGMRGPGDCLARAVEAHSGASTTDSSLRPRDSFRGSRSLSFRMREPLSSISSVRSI
Chain of Intestinal-type alkaline phosphatase (P24822 whole entry): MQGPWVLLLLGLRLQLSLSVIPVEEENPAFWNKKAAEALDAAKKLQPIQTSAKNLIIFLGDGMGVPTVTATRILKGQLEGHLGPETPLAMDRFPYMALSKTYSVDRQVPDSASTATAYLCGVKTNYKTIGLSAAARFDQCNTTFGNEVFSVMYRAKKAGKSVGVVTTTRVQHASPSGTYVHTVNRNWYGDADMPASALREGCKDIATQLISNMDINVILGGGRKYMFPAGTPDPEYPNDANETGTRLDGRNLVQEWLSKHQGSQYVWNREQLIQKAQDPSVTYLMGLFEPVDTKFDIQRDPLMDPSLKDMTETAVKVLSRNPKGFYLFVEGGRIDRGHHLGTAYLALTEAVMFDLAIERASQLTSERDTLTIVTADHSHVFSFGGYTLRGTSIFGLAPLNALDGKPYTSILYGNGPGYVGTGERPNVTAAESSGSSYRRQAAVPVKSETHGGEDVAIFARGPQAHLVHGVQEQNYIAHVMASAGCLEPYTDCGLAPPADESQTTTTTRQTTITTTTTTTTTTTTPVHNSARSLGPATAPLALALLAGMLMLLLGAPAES
Chain of Glycogen synthase kinase-3 beta (P49841 whole entry): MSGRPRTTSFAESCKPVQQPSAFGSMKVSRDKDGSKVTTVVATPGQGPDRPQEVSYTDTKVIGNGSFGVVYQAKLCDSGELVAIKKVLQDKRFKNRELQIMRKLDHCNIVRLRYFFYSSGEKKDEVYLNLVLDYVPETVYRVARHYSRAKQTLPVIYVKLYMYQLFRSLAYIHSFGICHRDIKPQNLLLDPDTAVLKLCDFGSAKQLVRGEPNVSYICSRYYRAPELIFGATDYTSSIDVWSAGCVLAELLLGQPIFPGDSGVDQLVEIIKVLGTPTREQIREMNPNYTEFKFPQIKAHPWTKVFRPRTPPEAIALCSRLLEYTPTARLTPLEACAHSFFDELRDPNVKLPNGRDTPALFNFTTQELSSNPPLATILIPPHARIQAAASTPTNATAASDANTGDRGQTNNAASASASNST
Chain of Platelet-derived growth factor receptor alpha (P16234 whole entry): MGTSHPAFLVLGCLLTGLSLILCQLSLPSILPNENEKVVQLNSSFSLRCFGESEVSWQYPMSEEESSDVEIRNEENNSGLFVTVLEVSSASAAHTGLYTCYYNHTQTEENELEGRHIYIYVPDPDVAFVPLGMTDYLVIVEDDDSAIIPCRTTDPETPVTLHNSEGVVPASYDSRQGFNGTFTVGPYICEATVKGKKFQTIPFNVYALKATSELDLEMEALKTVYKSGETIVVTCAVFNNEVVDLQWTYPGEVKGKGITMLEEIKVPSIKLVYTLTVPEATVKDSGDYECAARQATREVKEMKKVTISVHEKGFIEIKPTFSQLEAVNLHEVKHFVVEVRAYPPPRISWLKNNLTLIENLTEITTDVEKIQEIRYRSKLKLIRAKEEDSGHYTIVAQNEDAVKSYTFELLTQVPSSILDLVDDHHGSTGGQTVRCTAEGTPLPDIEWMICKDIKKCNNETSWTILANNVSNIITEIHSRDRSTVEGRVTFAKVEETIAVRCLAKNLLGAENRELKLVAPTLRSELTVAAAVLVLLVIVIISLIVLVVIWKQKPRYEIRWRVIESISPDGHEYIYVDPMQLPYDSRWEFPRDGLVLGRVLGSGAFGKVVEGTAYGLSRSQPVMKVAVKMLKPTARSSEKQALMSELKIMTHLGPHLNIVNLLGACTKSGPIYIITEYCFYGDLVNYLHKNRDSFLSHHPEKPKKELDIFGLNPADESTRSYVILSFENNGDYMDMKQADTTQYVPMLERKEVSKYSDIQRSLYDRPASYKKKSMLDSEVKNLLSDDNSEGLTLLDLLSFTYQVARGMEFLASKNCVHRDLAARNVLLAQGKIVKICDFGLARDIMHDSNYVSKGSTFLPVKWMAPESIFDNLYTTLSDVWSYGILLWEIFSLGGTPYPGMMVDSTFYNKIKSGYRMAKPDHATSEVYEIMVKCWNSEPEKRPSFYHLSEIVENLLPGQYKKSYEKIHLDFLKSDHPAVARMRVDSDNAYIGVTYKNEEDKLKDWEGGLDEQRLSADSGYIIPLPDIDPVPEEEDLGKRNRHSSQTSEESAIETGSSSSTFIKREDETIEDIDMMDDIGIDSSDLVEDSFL
Chain of Serine/threonine-protein kinase TAO1 (Q7L7X3 whole entry): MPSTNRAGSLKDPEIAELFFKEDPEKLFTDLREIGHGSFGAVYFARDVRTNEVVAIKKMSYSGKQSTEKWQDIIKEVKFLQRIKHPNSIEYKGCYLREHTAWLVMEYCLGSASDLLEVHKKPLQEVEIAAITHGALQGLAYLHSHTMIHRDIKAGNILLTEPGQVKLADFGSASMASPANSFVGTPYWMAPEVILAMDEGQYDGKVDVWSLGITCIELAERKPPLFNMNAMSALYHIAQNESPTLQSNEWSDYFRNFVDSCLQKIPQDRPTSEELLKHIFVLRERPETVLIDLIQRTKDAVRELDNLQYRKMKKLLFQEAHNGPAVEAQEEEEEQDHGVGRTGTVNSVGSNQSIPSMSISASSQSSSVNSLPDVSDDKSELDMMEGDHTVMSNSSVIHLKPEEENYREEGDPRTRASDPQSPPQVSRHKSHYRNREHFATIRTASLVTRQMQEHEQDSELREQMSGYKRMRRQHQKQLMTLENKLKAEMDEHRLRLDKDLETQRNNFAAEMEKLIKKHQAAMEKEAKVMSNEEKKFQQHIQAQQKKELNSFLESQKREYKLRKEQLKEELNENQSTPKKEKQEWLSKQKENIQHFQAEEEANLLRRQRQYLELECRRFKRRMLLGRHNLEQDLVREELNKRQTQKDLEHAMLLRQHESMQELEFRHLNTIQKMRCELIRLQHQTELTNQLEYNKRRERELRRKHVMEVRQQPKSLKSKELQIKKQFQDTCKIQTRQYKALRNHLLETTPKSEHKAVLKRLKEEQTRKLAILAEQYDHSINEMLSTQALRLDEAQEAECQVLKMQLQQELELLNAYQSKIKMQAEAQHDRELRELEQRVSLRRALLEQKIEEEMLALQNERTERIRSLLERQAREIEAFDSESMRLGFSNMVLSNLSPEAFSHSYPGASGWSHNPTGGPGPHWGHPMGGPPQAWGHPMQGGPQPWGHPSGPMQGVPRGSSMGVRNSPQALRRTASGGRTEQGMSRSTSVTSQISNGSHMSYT

Turning to `O=C(NN1C(=O)CSC1=S)C(=O)NN1C(=O)CSC1=S`, the IC50 – broadly, the concentration needed to halve the response being measured – in [1] was 7.75 µM (active).

As for `COC(=O)C1CN(C#N)N(c2ccc(Cl)cc2)C12c1ccccc1-c1ccccc12` (stereo unspecified), the IC50 in assay [2] was 0.313 µM (active). The EC50 (in general, the concentration at which the effect is half-maximal) in the assay on BJ is 2.49 µM (inconclusive); in [3] it was 10.1 µM (active); at Streptokinase A, 0.744 µM (active); in the assay with Streptococcus, 20.7 µM (active).

Take `Cc1ccc2[nH]c(/C(C#N)=C/c3ccc(O)c(O)c3)nc2c1`: the CC50 (as a rule, the concentration that lowers cell viability or growth by half) in assay [4] was 100 µM (active).

In the case of `Nc1noc2cccc(-c3cccc(O)c3)c12`, the Ki (commonly the dissociation constant of the complex between target and ligand, obtained from inhibition or displacement) at Misshapen-like kinase 1 was 3.16 µM (active); in assay [5], > 50.1 µM (inactive); in assay [6] it was > 7.94 µM (inactive); in assay [7], > 7.94 µM (inactive); in assay [8] it was 7.94 µM (active); in assay [9] it was > 1.58 µM (inactive). The Ki in assay [10] is > 10 µM (inactive); in assay [11], > 7.94 µM (inactive); in [12], > 25.1 µM (inactive); in [13], > 1.58 µM (inactive); in assay [14], 15.8 µM (active); at Aurora kinase A it was > 31.6 µM (inactive). The Ki was 1.58 µM (active) in assay [15]; > 7.94 µM (inactive) in assay [16]; > 7.94 µM (inactive) in [17]; > 50.1 µM (inactive) in assay [18]; 7.94 µM (active) at SRSF protein kinase 1; > 2 µM (inactive) in [19]. Further, the Ki in assay [20] was 6.31 µM (active).
